How the values were obtained:
BaF3 [1] = test: Antiproliferative activity against mouse BAF3 cells expressing PDGFRalpha T674M mutant gene; type: functional, cell-based
MOLT-3 = test: Antiproliferative activity against human MOLT3 cells expressing FLT3 gene; type: functional, cell-based
BaF3 [2] = test: Antiproliferative activity against mouse BAF3 cells expressing Kit […] mutant gene; type: functional, cell-based
BaF3 [3] = test: Antiproliferative activity against wild type mouse BAF3 cells; type: cell-based

Measured: EC50

O=C(NCCN1CCOCC1)c1cccc(-c2ccc3c(NC(=O)C4CC4)n[nH]c3c2)c1
> 10 µM: all assays above

From ChEMBL document CHEMBL2046416, “An amino-indazole scaffold with spectrum selective kinase inhibition of FLT3, PDGFRα and kit” (Bioorg Med Chem Lett, 2012)
